Read-outs that look alike come from different tables or passages of the source.
Key:
[1] = Maximum tolerated dose (MTD) study of PEGylated conjugates of cabazitaxel in athymic mice; type: in vivo, female athymic nu/nu mice; conditions: qw x 3, iv; for Treatment-Related Deaths / BW Nadir / BW Nadir (day): MTD study 20K conjugates; for Treatment-Related Deaths: N=5
Procedure: Purpose. This study was performed to determine appropriate doses of each compound for tumor xenograft studies. In those studies, it is desirable to administer the maximum dose of test compound that will not cause excessive loss of body weight. In general, loss of ˜15% of the initial body weight of the animal is typically the maximum desired.
Experimental procedure. MTD for 4-arm-conjugated to cabazitaxel were determined in female athymic nu/nu mice using standard methods. Briefly, 8-12 week old mice were administered test compounds or cabazitaxel intravenously at one week intervals for a total of three doses per mouse (qw×3, iv) as shown in Tables 1 and 2. For all PEG-conjugated test compounds, the doses of both the conjugate and released cabazitaxel, calculated from the cabazitaxel content of the respective conjugate, are shown. […] PEG-cabazitaxel conjugates were prepared in D5W. […] Mice were observed daily for clinical signs and body weights were recorded on days 1-5 and then biweekly until the end of study. All procedures were conducted in compliance with IACUC requirements. […] For any group with two measurements of mean body weight loss of greater than 20%, dosing was stopped and recovery was allowed. Within a group with greater than 20% mean weight loss, individual animals greater than 30% body weight loss were euthanized. Compound dosing was terminated for any group in which mean weight loss exceeded 20% or >10% of animals died. Moribund animals were euthanized and all animals were euthanized at end of study (day 30).
Results. The results for the study MTD “20K Conjugates” are summarized in Table 3 and FIG. 1 while the results for the MTD “30K and 40K Conjugates” study are summarized Table 4 and FIG. 2. […] It should be noted that this is not meant to be a definitive MTD, but is simply a guide to select an appropriate dose for conducting tumor xenograft studies using this administration route and schedule. Note too, that these MTD are given as cabazitaxel equivalents. The actual dose of each conjugate must be corrected for the wt % of cabazitaxel in that specific conjugate.

[2] = tested on: H460 non-small cell lung cancer (NSCLC) implants; conditions: for % TGD / Median TTE (Median Time to Endpoint) / TGD (tumor growth delay compared to vehicle) / CR (Number of Complete Regressions) / Deaths / PR (Number of Partial Regressions) / TFS (Number of Tumor Free Survivors) / MTV (Median Tumor Volume): iv, qwk x 3; for CR (Number of Complete Regressions) / Deaths / PR (Number of Partial Regressions) / TFS (Number of Tumor Free Survivors): N=10; for Complete regression, i.e., no detectable tumor (number of animals): through day 45, dose not given
Procedure: Purpose. Studies were conducted to assess the growth inhibitory effects of PEGylated-conjugates of cabazitaxel on H460 non-small cell lung cancer (NSCLC) implants in athymic nu/nu mice.
Experimental plan. These studies were conducted using routine methods and materials that are familiar to those skilled in the art. Briefly, 8 to 12 week old female nu/nu mice were injected subcutaneously in the flank with 1×10^7 H460 tumor cells in 0.2 mL sterile buffer. […] Animals received three intravenous doses of test article at one week intervals beginning on day 1. Cabazitaxel solutions were prepared in D5W containing 5% Tween 80:10% ethanol. PEG-cabazitaxel conjugates were prepared in D5W. The administration volume for all test articles was 10 mL/kg. The test doses were selected to represent the MTD and ½ the MTD for each test compound. The tables list the actual mg/kg for each test article and the corresponding cabazitaxel equivalent calculated based on the weight-percent cabazitaxel content for each PEGylated conjugate.
Animals were weighed on days 1-5, 7, 9, 11, 13 then biweekly until the end of the study. Tumor sizes were measured using calipers biweekly throughout the study and tumor volumes were calculated using the formula for an ellipsoid sphere: L×W^2/2=mm^3, where L and W are the major axis dimensions of the tumor in mm. Additional parameters that were monitored were the number of non-specific deaths, number of partial and complete tumor regressions, number of tumor-free survivors, and the time required for individual animals' tumors to reach 2000 mm^3. The median time for a tumor to reach 2000 mm^3 in the treatment groups (T) and control group (C) was used to calculate of the overall delay in the growth of the median tumor (TGD). Animals were monitored individually until reaching the experimental endpoint: tumor size of 2000 mm^3 or 45 days, whichever came first. […] When the study endpoint was reached, the animals were euthanized.

[3] = 20K conjugate xenograft study, 12.5 mg/kg cabazitaxel eq.
[4] = 20K conjugate xenograft study, 25 mg/kg cabazitaxel eq.
[5] = 20K conjugate xenograft study, 10 mg/kg cabazitaxel eq.
[6] = 20K conjugate xenograft study, 20 mg/kg cabazitaxel eq.
[7] = 30K and 40K conjugate xenograft study, 10 mg/kg cabazitaxel eq.
[8] = 30K and 40K conjugate xenograft study, 20 mg/kg cabazitaxel eq.
[9] = 30K and 40K conjugate xenograft study
[10] = 30K and 40K conjugate xenograft study, 15 mg/kg cabazitaxel eq.
[11] = 30K and 40K conjugate xenograft study, 30 mg/kg cabazitaxel eq.
[12] = 30K and 40K conjugate xenograft study, 6 mg/kg cabazitaxel eq.
[13] = 30K and 40K conjugate xenograft study, 12 mg/kg cabazitaxel eq.

In the case of “4-ARM-PEG20K-Butanoate-Linked Cabazitaxel Conjugate [4-arm-PEG20K-BA-Cabazitaxel]”, the “Treatment-Related Deaths” value ([1]; 7.5 mg/kg cabazitaxel eq.) is reported as 0, the “BW Nadir” value ([1]; 15 mg/kg cabazitaxel eq.) is reported as −1.3% and the “BW Nadir (day)” value ([1]; 15 mg/kg cabazitaxel eq.) is reported as 2 days. The “Treatment-Related Deaths” value ([1]; 15 mg/kg cabazitaxel eq.) was 0, the “BW Nadir” value ([1]; 30 mg/kg cabazitaxel eq.) was −16.6% and the “BW Nadir (day)” value ([1]; 30 mg/kg cabazitaxel eq.) was 20 days. For the same substance, the “Treatment-Related Deaths” value ([1]; 30 mg/kg cabazitaxel eq.) was 0, the “Estimated MTD, cabazitaxel equivalents” value ([1]; athymic nu/nu mice, guide value, not a definitive MTD) was 25 mg/kg and the “Tumor growth inhibition compared with cabazitaxel and the other conjugates (in words)” value ([2]; 20K conjugate xenograft study) was “did not provide greater tumor growth inhibition than either cabazitaxel or the other PEG-cabazitaxel conjugates tested in this study”. For the same substance, the “% TGD” value [2, 3] was 36%, the “Median TTE (Median Time to Endpoint)” value [2, 3] was 25.3 days and the “TGD (tumor growth delay compared to vehicle)” value [2, 3] was 6.7 days. The “CR (Number of Complete Regressions)” value [2, 3] was 0, the Deaths [2, 3] was 0 and the “PR (Number of Partial Regressions)” value [2, 3] was 0. The “TFS (Number of Tumor Free Survivors)” value [2, 3] was 0, the “% TGD” value [2, 4] was 112% and the “Median TTE (Median Time to Endpoint)” value [2, 4] was 39.3 days. The “TGD (tumor growth delay compared to vehicle)” value [2, 4] was 20.8 days, the “CR (Number of Complete Regressions)” value [2, 4] was 0 and the Deaths [2, 4] was 0. For the same substance, the “PR (Number of Partial Regressions)” value [2, 4] was 0 and the “TFS (Number of Tumor Free Survivors)” value [2, 4] was 0.
With “4-ARM-PEG20K-Glycinate-Linked Cabazitaxel Conjugate [4-arm-PEG20K-CM-glycine-Cabazitaxel]” the “% TGD” value [2, 5] was 63%, the “MTV (Median Tumor Volume)” value [2, 5] was 1200 mm^3 and the “Median TTE (Median Time to Endpoint)” value [2, 5] was 30.1 days. For the same substance, the “TGD (tumor growth delay compared to vehicle)” value [2, 5] was 11.6 days, the “CR (Number of Complete Regressions)” value [2, 5] was 0 and the “PR (Number of Partial Regressions)” value [2, 5] was 0. The “TFS (Number of Tumor Free Survivors)” value [2, 5] was 0, the “% TGD” value [2, 6] was 154% and the “MTV (Median Tumor Volume)” value [2, 6] was 1183 mm^3. For the same substance, the “TGD (tumor growth delay compared to vehicle)” value [2, 6] was 28.5 days, the “CR (Number of Complete Regressions)” value [2, 6] was 0 and the “PR (Number of Partial Regressions)” value [2, 6] was 4. The “TFS (Number of Tumor Free Survivors)” value [2, 6] was 0.
For “4-ARM-PEG30K-Glycinate-Linked Cabazitaxel Conjugate [4-arm-PEG30K-CM-glycine-Cabazitaxel]”, the “% TGD” value [2, 7] was 119%, the “MTV (Median Tumor Volume)” value [2, 7] was 726 mm^3 and the “Median TTE (Median Time to Endpoint)” value [2, 7] was 32.7 days. For the same substance, the “TGD (tumor growth delay compared to vehicle)” value [2, 7] was 17.8 days, the “CR (Number of Complete Regressions)” value [2, 7] was 0 and the “PR (Number of Partial Regressions)” value [2, 7] was 1. For the same substance, the “TFS (Number of Tumor Free Survivors)” value [2, 7] was 0, the “% TGD” value [2, 8] was 208% and the “MTV (Median Tumor Volume)” value [2, 8] was 478 mm^3. The “TGD (tumor growth delay compared to vehicle)” value [2, 8] was 31.1 days, the “CR (Number of Complete Regressions)” value [2, 8] was 1 and the “PR (Number of Partial Regressions)” value [2, 8] was 6. The “TFS (Number of Tumor Free Survivors)” value [2, 8] was 1 and the “Complete regression, i.e., no detectable tumor (number of animals)” value [2, 9] was “one”.
With “4-ARM-PEG40K-Glycinate-Linked Cabazitaxel Conjugate [4-arm-PEG40K-CM-glycine-Cabazitaxel]” the “% TGD” value [2, 10] was 146%, the “MTV (Median Tumor Volume)” value [2, 10] was 1632 mm^3 and the “Median TTE (Median Time to Endpoint)” value [2, 10] was 36.8 days. For the same substance, the “TGD (tumor growth delay compared to vehicle)” value [2, 10] was 21.9 days, the “CR (Number of Complete Regressions)” value [2, 10] was 0 and the “PR (Number of Partial Regressions)” value [2, 10] was 0. The “TFS (Number of Tumor Free Survivors)” value [2, 10] was 0, the “% TGD” value [2, 11] was 208% and the “MTV (Median Tumor Volume)” value [2, 11] was 32 mm^3. The “TGD (tumor growth delay compared to vehicle)” value [2, 11] was 31.1 days, the “CR (Number of Complete Regressions)” value [2, 11] was 1 and the “TFS (Number of Tumor Free Survivors)” value [2, 11] was 1. The “PR (Number of Partial Regressions)” value ([2]; 30K and 40K conjugate xenograft study, 30 mg/kg cabazitaxel eq., 30 mg/kg) was 9, the “PR (Number of Partial Regressions)” value ([2]; 30K and 40K conjugate xenograft study, 30 mg/kg cabazitaxel eq., listed as 4-arm-PEG40K-CM-glycine-cabazitaxel, 30 mg/kg) was 10 and the “Complete regression, i.e., no detectable tumor (number of animals)” value [2, 9] was “one”.
With “4-ARM-PEG40K-Alaninate-Linked Cabazitaxel Conjugate [4-arm-PEG40K-CM-alanine-Cabazitaxel]” the “% TGD” value [2, 7] was 101%, the “Median TTE (Median Time to Endpoint)” value [2, 7] was 30.1 days and the “TGD (tumor growth delay compared to vehicle)” value [2, 7] was 15.1 days. For the same substance, the “CR (Number of Complete Regressions)” value [2, 7] was 0, the “PR (Number of Partial Regressions)” value [2, 7] was 0 and the “TFS (Number of Tumor Free Survivors)” value [2, 7] was 0. For the same substance, the “% TGD” value [2, 8] was 208%, the “MTV (Median Tumor Volume)” value [2, 8] was 184 mm^3 and the “TGD (tumor growth delay compared to vehicle)” value [2, 8] was 31.1 days. For the same substance, the “CR (Number of Complete Regressions)” value [2, 8] was 1, the “PR (Number of Partial Regressions)” value [2, 8] was 4 and the “TFS (Number of Tumor Free Survivors)” value [2, 8] was 1. The “Complete regression, i.e., no detectable tumor (number of animals)” value [2, 9] was “one”.
In the case of “4-ARM-PEG20K-Alaninate-Linked Cabazitaxel Conjugate [4-arm-PEG20K-CM-alanine-Cabazitaxel]”, the “% TGD” value [2, 5] is reported as 93%, the “MTV (Median Tumor Volume)” value [2, 5] is reported as 908 mm^3 and the “Median TTE (Median Time to Endpoint)” value [2, 5] is reported as 35.6 days. For the same substance, the “TGD (tumor growth delay compared to vehicle)” value [2, 5] was 17.1 days, the “CR (Number of Complete Regressions)” value [2, 5] was 0 and the “PR (Number of Partial Regressions)” value [2, 5] was 0. The “TFS (Number of Tumor Free Survivors)” value [2, 5] was 0, the “% TGD” value [2, 6] was 154% and the “MTV (Median Tumor Volume)” value [2, 6] was 1470 mm^3. For the same substance, the “TGD (tumor growth delay compared to vehicle)” value [2, 6] was 28.5 days, the “CR (Number of Complete Regressions)” value [2, 6] was 0 and the “PR (Number of Partial Regressions)” value [2, 6] was 0. For the same substance, the “TFS (Number of Tumor Free Survivors)” value [2, 6] was 0.
For “4-ARM-PEG30K-Alaninate-Linked Cabazitaxel Conjugate [4-arm-PEG30K-CM-alanine-Cabazitaxel]”, the “% TGD” value [2, 12] was 39%, the “Median TTE (Median Time to Endpoint)” value [2, 12] was 20.8 days and the “TGD (tumor growth delay compared to vehicle)” value [2, 12] was 5.9 days. For the same substance, the “CR (Number of Complete Regressions)” value [2, 12] was 0, the “PR (Number of Partial Regressions)” value [2, 12] was 0 and the “TFS (Number of Tumor Free Survivors)” value [2, 12] was 0. For the same substance, the “% TGD” value [2, 13] was 158%, the “MTV (Median Tumor Volume)” value [2, 13] was 600 mm^3 and the “Median TTE (Median Time to Endpoint)” value [2, 13] was 38.6 days. The “TGD (tumor growth delay compared to vehicle)” value [2, 13] was 23.6 days, the “CR (Number of Complete Regressions)” value [2, 13] was 0 and the “PR (Number of Partial Regressions)” value [2, 13] was 0. For the same substance, the “TFS (Number of Tumor Free Survivors)” value [2, 13] was 0.
